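Tested at 5 concentrations; 48 h exposure; 96-well plates; endpoints linearly interpolated, else capped at highest concentration. The concentration for full growth arrest is given as TGI.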
Columns and labels:
Experiment in all cases: NCI tumour cell line growth inhibition, 48 h
[1] = tested on: HCT-15 colon
[2] = tested on: HT29 colon
[3] = tested on: HOP-18 NSCLC
[4] = tested on: SK-MEL-5 melanoma
[5] = tested on: NCI-H226 lung
[6] = tested on: MOLT-4 leukemia
[7] = tested on: SNB-78 CNS
[8] = tested on: LXFL 529 NSCLC
[9] = tested on: SF-268 CNS
[10] = tested on: CCRF-CEM leukemia
[11] = tested on: A549 NSCLC
[12] = tested on: 786-0 renal
[13] = tested on: TK-10 renal
[14] = tested on: NCI-H460 lung
[15] = tested on: A498 renal
[16] = tested on: M19-MEL melanoma
[17] = tested on: HCT-116 colon
[18] = tested on: XF 498 CNS
[19] = tested on: CAKI-1 renal
[20] = tested on: EKVX NSCLC
[21] = tested on: ACHN renal
[22] = tested on: SK-OV-3 ovarian
[23] = tested on: LOX IMVI melanoma
[24] = tested on: HOP-62 NSCLC
[25] = tested on: SNB-19 CNS
[26] = tested on: OVCAR-4 ovarian
[27] = tested on: UACC-62 melanoma
[28] = tested on: DMS 114 small cell lung
[29] = tested on: RXF 393 renal
[30] = tested on: KM12 colon
[31] = tested on: DMS 273 small cell lung
[32] = tested on: SR leukemia
[33] = tested on: NCI-H23 lung
[34] = tested on: HOP-92 NSCLC
[35] = tested on: SF-295 CNS
[36] = tested on: SK-MEL-2 melanoma
[37] = tested on: HCC-2998 colon
[38] = tested on: NCI-H522 lung
[39] = tested on: SF-539 CNS
[40] = tested on: DLD-1 colon
[41] = tested on: SK-MEL-28 melanoma
[42] = tested on: IGROV1 ovarian
[43] = tested on: OVCAR-8 ovarian
[44] = tested on: KM20L2 colon
[45] = tested on: UO-31 renal
[46] = tested on: OVCAR-5 ovarian
[47] = tested on: K-562 leukemia
[48] = tested on: M14 melanoma
[49] = tested on: HL-60(TB) leukemia
[50] = tested on: RPMI-8226 leukemia
[51] = tested on: OVCAR-3 ovarian
[52] = tested on: SN12C renal
[53] = tested on: UACC-257 melanoma
[54] = tested on: COLO 205 colon
[55] = tested on: SW-620 colon
[56] = tested on: U251 CNS
[57] = tested on: DU-145 prostate
[58] = tested on: MALME-3M melanoma
[59] = tested on: PC-3 prostate
[60] = tested on: MDA-MB-231 breast
[61] = tested on: T-47D breast
[62] = tested on: SNB-75 CNS
[63] = tested on: BT-549 breast
[64] = tested on: HS 578T breast
[65] = tested on: MDA-MB-435
[66] = tested on: NCI/ADR-RES ovarian
[67] = tested on: MDA-N
[68] = tested on: MCF7 breast

SMILES: CNc1ccc(/C=C2\C=Cc3ccccc32)cc1
- TGI [1]: > 100 µM
- TGI [2]: 38.4 µM
- TGI [3]: 55.2 µM
- TGI [4]: 54.3 µM
- TGI [5]: 57.3 µM
- TGI [6]: > 100 µM
- TGI [7]: > 100 µM
- TGI [8]: > 100 µM
- TGI [9]: > 100 µM
- TGI [10]: > 100 µM
- TGI [11]: > 100 µM
- TGI [12]: > 100 µM
- TGI [13]: 54.6 µM
- TGI [14]: 37.9 µM
- TGI [15]: 96.8 µM
- TGI [16]: > 100 µM
- TGI [17]: > 100 µM
- TGI [18]: > 100 µM
- TGI [19]: > 100 µM
- TGI [20]: 91.1 µM
- TGI [21]: 54.5 µM
- TGI [22]: > 100 µM
- TGI [23]: 24.5 µM
- TGI [24]: 53.7 µM
- TGI [25]: > 100 µM
- TGI [26]: > 100 µM
- TGI [27]: 71.9 µM
- TGI [28]: 44.9 µM
- TGI [29]: > 100 µM
- TGI [30]: 26.4 µM
- TGI [31]: 71.3 µM
- TGI [32]: > 100 µM
- TGI [33]: 57.7 µM
- TGI [34]: 50.9 µM
- TGI [35]: 99 µM
- TGI [36]: 42 µM
- TGI [37]: 31.4 µM
- TGI [38]: 25.3 µM
- TGI [39]: > 100 µM
- TGI [40]: > 100 µM
- TGI [41]: > 100 µM
- TGI [42]: > 100 µM
- TGI [43]: > 100 µM
- TGI [44]: 35.8 µM
- TGI [45]: 30.5 µM
- TGI [46]: 45 µM
- TGI [47]: > 100 µM
- TGI [48]: 36.1 µM
- TGI [49]: > 100 µM
- TGI [50]: > 100 µM
- TGI [51]: 51.9 µM
- TGI [52]: > 100 µM
- TGI [53]: > 100 µM
- TGI [54]: 33.3 µM
- TGI [55]: > 100 µM
- TGI [56]: > 100 µM

SMILES: O=C1C=CC(=O)c2c(O)ccc(O)c21
- TGI [1]: 1.65 µM
- TGI [2]: 5.68 µM
- TGI [57]: 28 µM
- TGI [58]: 2.39 µM
- TGI [59]: 29.5 µM
- TGI [3]: 2.17 µM
- TGI [4]: 6.08 µM
- TGI [5]: 18.5 µM
- TGI [6]: 4.45 µM
- TGI [60]: 6.64 µM
- TGI [7]: 6.37 µM
- TGI [8]: 1.64 µM
- TGI [9]: 8.39 µM
- TGI [10]: 0.966 µM
- TGI [11]: 33.1 µM
- TGI [12]: 2.55 µM
- TGI [61]: 4.61 µM
- TGI [13]: 2.75 µM
- TGI [14]: 9.79 µM
- TGI [15]: 7.78 µM
- TGI [16]: 1.49 µM
- TGI [17]: 2.39 µM
- TGI [18]: 3.07 µM
- TGI [19]: 2.82 µM
- TGI [20]: 7.4 µM
- TGI [21]: 2.67 µM
- TGI [22]: 27.5 µM
- TGI [62]: 6.98 µM
- TGI [23]: 3.8 µM
- TGI [24]: 19.3 µM
- TGI [25]: 16.6 µM
- TGI [26]: 4.97 µM
- TGI [27]: 3.95 µM
- TGI [28]: 5.27 µM
- TGI [29]: 2.02 µM
- TGI [30]: 13 µM
- TGI [31]: 7.55 µM
- TGI [32]: 1.75 µM
- TGI [33]: 7.39 µM
- TGI [34]: 3.21 µM
- TGI [35]: 16.1 µM
- TGI [36]: 17.4 µM
- TGI [37]: 10.5 µM
- TGI [38]: 1.16 µM
- TGI [63]: 4.8 µM
- TGI [64]: 6.57 µM
- TGI [39]: 5.84 µM
- TGI [40]: 0.891 µM
- TGI [41]: 2.76 µM
- TGI [65]: 13.1 µM
- TGI [42]: 15.5 µM
- TGI [43]: 2.05 µM
- TGI [44]: 4.97 µM
- TGI [45]: 4.69 µM
- TGI [66]: 3.72 µM
- TGI [46]: 13.1 µM
- TGI [47]: > 25 µM
- TGI [48]: 1.32 µM
- TGI [49]: 0.831 µM
- TGI [67]: 8.18 µM
- TGI [51]: 5.87 µM
- TGI [52]: 3.08 µM
- TGI [53]: 2.45 µM
- TGI [54]: 1.66 µM
- TGI [55]: 1.1 µM
- TGI [68]: 6.59 µM
- TGI [56]: 14.8 µM

Reference: PubChem BioAssay (NCI)
